Assay results as given in US9561220B2, “Group of alkaloids, the novel autophagic enhancers for treatment of cancers and neurodegenerative conditions thereof” (Macau University of Science and Technology, priority 2014, dated 2017).

Test system: panel of human cancer cells (HeLa, MCF-7, HepG2, Hep3B, H1299, A549, PC3)
Assay: cells
Type: cell-based
Conditions: Homo sapiens, 72 h, read-out: mean IC50 value (cell cytotoxicity)
Experimental: The test compounds of liensinine, isoliensinine, dauricine, cepharanthine, hernandezine and thalidezine were dissolved in DMSO at a final concentration of 100 mmol/L and stored at −20° C. Cytotoxicity was assessed using the 3-(4,5-dimethylthiazol-2-yl)-2,5-diphenyltetrazolium bromide assay as described previously. 4000-8000 HeLa (human cervical cancer), MCF-7 (human breast cancer), HepG2 (human liver cancer), Hep3B (human liver cancer), H1299 (human lung cancer), A549 (human lung cancer), PC3 (human prostate cancer) and LO2 (human normal liver) cells were seeded on 96-well plates per well. After overnight pre-incubation, the cells were exposed to different concentrations of liensinine, isoliensinine, dauricine, cepharanthine, hernandezine and thalidezine (0.039-100 μmol/L) for 3 days. Specifically, the following concentrations are used for all of the above alkaloids: […], 0.039 μmol/L. Subsequently, 10 μL of MTT reagents was added to each well and incubated at 37° C. for 4 hours followed by the addition of 100 μL solubilization buffer (10% SDS in 0.01 mol/L HCl) and overnight incubation. Absorbance at 585 nm was determined from each well on the following day. The percentage of cell viability was calculated using the following formula: Cell viability (%)=Cells number treated/Cells number DMSO control×100. Data was obtained from three independent experiments.

For `COc1ccc2cc1Oc1ccc(cc1)C[C@H]1c3c(cc4c(c3Oc3cc5c(cc3OC)CCN(C)[C@@H]5C2)OCO4)CCN1C` [cepharanthine], which IC50 is on record?
Its IC50 is 4.52 to 61.8 µM.
